Drawing on BindingDB's records for doi:10.7270/Q2TX3CTT (Broad Institute, 2010), this text covers EC50 for 67 compounds.

Where a name gives a salt, the structure may show the parent alone.

In the assay the target is Glycogen synthase kinase-3 beta (Homo sapiens, UniProt P49841). As to the kind of experiment: concentration-response blocking of human GSK3B – biochemical, luminescence, cell-free homogeneous, retest, dose response (AID 434954).
Chain of Glycogen synthase kinase-3 beta (P49841 whole entry): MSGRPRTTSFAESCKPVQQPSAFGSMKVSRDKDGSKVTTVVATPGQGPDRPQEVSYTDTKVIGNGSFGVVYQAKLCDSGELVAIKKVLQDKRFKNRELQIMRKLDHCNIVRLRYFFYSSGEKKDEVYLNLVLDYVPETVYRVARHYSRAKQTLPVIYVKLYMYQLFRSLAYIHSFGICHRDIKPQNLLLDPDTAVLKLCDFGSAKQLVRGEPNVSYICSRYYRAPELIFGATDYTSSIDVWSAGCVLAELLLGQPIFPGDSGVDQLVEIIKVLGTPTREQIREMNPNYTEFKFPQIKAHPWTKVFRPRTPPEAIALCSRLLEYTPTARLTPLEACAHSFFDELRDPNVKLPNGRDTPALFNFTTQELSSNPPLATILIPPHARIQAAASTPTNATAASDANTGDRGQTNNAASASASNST
For `COc1ccc(-c2nn(-c3ccccc3)cc2C=O)cc1[N+](=O)[O-]` [MLS001163277], the EC50 (commonly the concentration at which the effect is half-maximal) was above 300 µM.

`O=C1Nc2ccccc2Nc2ccc([N+](=O)[O-])cc21` [SMR000550741] had an EC50 of 25.4 µM.

Regarding `CCN(CC)Cc1c(C(=O)N/N=C/c2ccncc2)nnn1-c1nonc1N`, the response was half-maximal at 0.177 µM (EC50).

`COc1c(CC=C(C)C)cc([C@@H]2CC(=O)c3c(O)cc(O)cc3O2)cc1CC=C(C)C` [abyssinone-V-4'-O-methyl ether] had an EC50 above 300 µM.

Regarding `O=C1CCCC2=Nc3nc(SCc4ccccc4)nn3C(c3cccs3)C12` (configuration not stated) [2-(phenylmethylthio)-9-thiophen-2-yl-5,6,7,9-tetrahydro-1H-[1,2,4]triazolo[5,1-b]quinazolin-8-one], the EC50 is above 300 µM.

In the case of `COc1ccccc1-c1cc(=O)c2c(O)ccc([N+](=O)[O-])c2o1` [MLS000518626], the EC50 was above 300 µM.

Take `Cc1ccc(OCCn2c(S)nc3c(N)ncnc32)cc1` [MLS000765129]: the EC50 was above 300 µM.

In turn, `O=S(=O)(/C=C/c1ccccc1)N1CCN(Cc2ccc3c(c2)OCO3)CC1` yielded an EC50 above 300 µM.

The compound `CCN1CCCC1CNC(=O)c1ccc2c(c1)NC(=O)/C(=C\c1ccc(OC)c(OC)c1)S2` (configuration not stated) [MLS001030689] yielded an EC50 of 6.6 µM.

On to `CNc1nc(N)c([N+](=O)[O-])c(NC2CCCCC2)n1` [4-N-cyclohexyl-2-N-methyl-5-nitropyrimidine-2,4,6-triamine], for which the concentration for a half-maximal effect (EC50) came to 7.52 µM.

With `Cc1cc(=O)[nH]c(N=NCc2ccc(-c3ccc([N+](=O)[O-])cc3)o2)n1` [SMR000589712], the EC50 was above 300 µM.

`CC1=C(C#N)C(=O)NC(=O)C1=CNc1ccc(S(=O)(=O)CCO)cc1` [(5Z)-5-[[[4-(2-hydroxyethylsulfonyl)phenyl]amino]methylidene]-4-methyl-2,6-bis(oxidanylidene)pyridine-3-carbonitrile] registered an EC50 above 300 µM.

For the compound `O=c1oc(-c2cccs2)nc2sc3c(c12)CCCC3` [SMR000116853], the EC50 was above 300 µM.

Consider `Cc1nn(-c2ccccc2)cc1CN=O`, for which the EC50 is 71.2 µM.

`Cc1cc2c(N3CCCCC3C)ncnc2s1` (configuration not stated) [SMR000033135] had an EC50 above 300 µM.

`CCCN(CCC)Cc1c(C(=O)NN=Cc2ccsc2)nnn1-c1nonc1N` [SMR000620321] had an EC50 of 4.13 µM.

`CCCCc1cc(=O)oc2cc(C)cc(OCc3nn[nH]n3)c12` [MLS000041678] returned an EC50 above 300 µM.

For the compound `CCn1c(SCC(=O)Nc2ccc(C(C)=O)cc2)nnc1C1CC1` [N-(4-acetylphenyl)-2-[(5-cyclopropyl-4-ethyl-1,2,4-triazol-3-yl)sulfanyl]acetamide], the EC50 was above 300 µM.

The compound `NS(=O)(=O)c1ccc(N2CCCCCC2)c([N+](=O)[O-])c1` [4-(azepan-1-yl)-3-nitrobenzenesulfonamide] gave an EC50 above 300 µM.

`CCOC(=O)c1cnc2c(OC)cccc2c1N1CCN(c2ccc(OC)cc2)CC1` had an EC50 above 300 µM.

Regarding `CNc1nc(N)nc(-c2cc(Cl)ccc2OC)n1` [6-(5-chloranyl-2-methoxy-phenyl)-N2-methyl-1,3,5-triazine-2,4-diamine], the EC50 was above 300 µM.

The compound `CCOC(=O)c1c(S(=O)(=O)NCC(=O)NCc2ccc(C)cc2)c(C)n(C)c1C` [ethyl 1,2,5-trimethyl-4-[[2-[(4-methylphenyl)methylamino]-2-oxoethyl]sulfamoyl]pyrrole-3-carboxylate] had an EC50 above 300 µM.

Compound `O=C(NC(Cc1ccccc1)c1ccc2c(c1)OCCCO2)c1ccccc1` (configuration not stated) registered an EC50 above 300 µM.

`COC(=O)C(CC(C)C)NC(=O)CSc1nc(-c2ccccc2)c(C#N)c(=O)[nH]1` (configuration not stated) displayed an EC50 above 300 µM.

`CCN(CC)CCNC(=O)C(=O)Nc1ccc2c(c1)N(S(=O)(=O)c1cccs1)CCC2` [N-[2-(diethylamino)ethyl]-N'-(1-thiophen-2-ylsulfonyl-3,4-dihydro-2H-quinolin-7-yl)oxamide] yielded an EC50 above 300 µM.

`Cc1ccc2nc(-c3ccccc3)cn2c1` [6-methyl-2-phenyl-imidazo[1,2-a]pyridine;hydrobromide] came in with an EC50 of 29 µM.

`O=C(c1noc2c1CCc1ccccc1-2)N1CCOCC1` [3-(morpholin-4-ylcarbonyl)-4,5-dihydronaphtho[2,1-d]isoxazole] registered an EC50 above 300 µM.

Consider `Cc1ccc(SCC(=O)N2CC(C)OC(C)C2)cc1` (configuration not stated), for which the EC50 is above 300 µM.

With `COc1cccc(C(=O)Nc2nc3ccccc3s2)c1` [N-Benzothiazol-2-yl-3-methoxy-benzamide], the 50% effective concentration (EC50) is above 300 µM.

For `COc1cc(-c2cc(=O)c3c(O)c(OC)c(OC)c(O)c3o2)ccc1O` [5,8-dihydroxy-2-(4-hydroxy-3-methoxy-phenyl)-6,7-dimethoxy-chromone], a half-maximal response (EC50) required 24.9 µM.

For the compound `COc1ccccc1Nc1nc(NCCO)nc(N)c1[N+](=O)[O-]`, the EC50 was determined as 87.6 µM.

In the case of `CC(C)CNc1nc(N)c([N+](=O)[O-])c(NCC2CCCO2)n1` (configuration not stated), a half-maximal response (EC50) required 6.1 µM.

`C=CCNc1nc(N)c([N+](=O)[O-])c(Nc2ccccc2OC)n1` [4-N-(2-methoxyphenyl)-5-nitro-2-N-prop-2-enylpyrimidine-2,4,6-triamine] displayed an EC50 above 300 µM.

`Fc1ccccc1CSc1nnc(-c2ccccc2)o1` [MLS000063511]: the EC50 is above 300 µM.

`CCNc1ccc(S(=O)(=O)N(C)C)cc1NCC(=O)Nc1ccc(Br)cc1F` [N-(4-bromanyl-2-fluoranyl-phenyl)-2-[[5-(dimethylsulfamoyl)-2-(ethylamino)phenyl]amino]ethanamide] yielded an EC50 above 300 µM.

`COc1ccc(C2c3c(n[nH]c3C)N=C3CC(C)(C)CC(=O)C32)cc1` (configuration not stated) gave an EC50 of 28.3 µM.

As for `N#Cc1cccc(-c2nnc(SCc3ccccc3C#N)o2)c1` [SMR000006352], the EC50 was above 300 µM.

The compound `COc1ccc(-c2nn(CCC(=O)O)cc2C=NNC(N)=S)cc1` [3-[4-[(carbamothioylhydrazinylidene)methyl]-3-(4-methoxyphenyl)-1-pyrazolyl]propanoic acid] returned an EC50 above 300 µM.

In turn, `CC(C(=O)Nc1nc2ccccc2s1)n1cc([N+](=O)[O-])cn1` (configuration not stated) [SMR000307349] came in with an EC50 above 300 µM.

On to `Cc1cc(C(=O)OCCN2C(=O)c3ccccc3C2=O)c2ccccc2n1` [MLS000565821], for which the EC50 is above 300 µM.

In turn, `CC(=NNC(=S)Nc1c(C)cccc1C)c1cc2ccccc2o1` [SMR000260555] registered an EC50 above 300 µM.

`CNc1nc(N)c([N+](=O)[O-])c(Nc2cccc(Cl)c2)n1` [SMR000434546] had an EC50 of 11.7 µM.

For `Cc1c(O)c(CN2CCCCC2)cc2c1oc(=O)c1ccccc12` [MLS000551544], the EC50 was above 300 µM.

For `CC(C)=CCc1c(O)c(CC=C(C)C)c2c(c1O)C(=O)CC(c1ccc(O)cc1)O2` (configuration not stated) [2-(4-hydroxyphenyl)-6,8-bis(3-methylbut-2-enyl)-5,7-bis(oxidanyl)-2,3-dihydrochromen-4-one], the EC50 was above 300 µM.

Consider `O=C(Nc1ccccn1)c1ccc(C(=O)Nc2ccccn2)cc1` [SMR000502618], for which the EC50 is above 300 µM.

`CC1CCc2c(sc(Nc3nc4c(F)cccc4s3)c2C(N)=O)C1` (configuration not stated) [2-[(4-fluoranyl-1,3-benzothiazol-2-yl)amino]-6-methyl-4,5,6,7-tetrahydro-1-benzothiophene-3-carboxamide] showed an EC50 above 300 µM.

Compound `NC(=O)CN(c1ccc([N+](=O)[O-])cc1)S(=O)(=O)c1ccccc1` [2-[N-(benzenesulfonyl)-4-nitroanilino]acetamide] registered an EC50 above 300 µM.

For the compound `CN(CCO)S(=O)(=O)c1ccc2c(c1)C(=NNC(N)=O)c1cc(S(=O)(=O)N(C)CCO)ccc1-2` [MLS000766695], the EC50 was above 300 µM.

Compound `COc1ccc(C(=O)ON=C(C)c2cccs2)cc1` [MLS000544771] had an EC50 of 13.9 µM.

`COc1cccc2c1cc1c(=O)n(CC(=O)N3CCC(C)CC3)nc(C)n12` gave an EC50 above 300 µM.

Regarding `Cc1ccc(CNc2nc(N)c([N+](=O)[O-])c(NCCO)n2)cc1`, the EC50 came out at 117 µM.

On to `O=C1/C(=C/C=C/c2ccccc2)Oc2c1ccc(O)c2CN1CCN(CCO)CC1` [SMR000415785], for which the EC50 is above 300 µM.

The compound `O=[N+]([O-])c1ccccc1Oc1ccccc1Cl` returned an EC50 above 300 µM.

For `Fc1ccc(CSc2nnc(-c3ccncc3)o2)cc1`, the EC50 was above 300 µM.

The compound `COCCNC(=O)c1ccc(Cl)c(Cl)c1` [SMR000069998] had an EC50 above 300 µM.

Turning to `Cn1c(=O)c2[nH]c(CCCC(=O)O)nc2n(Cc2ccccc2)c1=S` [4-(3-benzyl-1-methyl-6-oxo-2-sulfanylidene-7H-purin-8-yl)butanoic acid], the response was half-maximal at 5.17 µM (EC50).

Consider `Cc1nn(Cc2ccc(Cl)c(Cl)c2)c(C)c1NC(=O)c1noc2c1CCCCC2` [SMR000023628], for which the EC50 is above 300 µM.

In turn, `COC(CNc1nc(SC)nc2sc3c(c12)CCN(C)C3)OC` [MLS001215082] displayed an EC50 above 300 µM.

`c1ccc(-c2nc(-c3ccco3)n3ccccc23)cc1` [MLS000392030] had an EC50 above 300 µM.

For `CCc1n[nH]c(SCC(=O)Nc2ccc(Br)cn2)n1` [N-(5-bromanylpyridin-2-yl)-2-[(5-ethyl-1H-1,2,4-triazol-3-yl)sulfanyl]ethanamide], the EC50 is 17.5 µM.

The compound `O=C(OCCN1CCOCC1)c1ccc(O)cc1` [SMR000513589] registered an EC50 above 300 µM.

Take `Cc1c(CN(C)C)c2c(n1C)C(=O)c1ccc(Br)cc1-2` [7-bromo-1-[(dimethylamino)methyl]-2,3-dimethyl-4-indeno[2,3-b]pyrrolone;hydrochloride]: the EC50 amounted to 17.8 µM.

`CCSc1ccc2nnc(-c3cccs3)n2n1` [6-ethylsulfanyl-3-thiophen-2-yl-[1,2,4]triazolo[4,3-b]pyridazine] gave an EC50 of 11.3 µM.

Compound `CC1(C)CC(=O)C=C(Nc2ccccn2)C1` displayed an EC50 above 300 µM.

For `COc1ccc(Cl)cc1NC(=O)CS(=O)(=O)c1cccc2nsnc12` [2-(2,1,3-benzothiadiazol-4-ylsulfonyl)-N-(5-chloranyl-2-methoxy-phenyl)ethanamide], the EC50 was above 300 µM.

Consider `O=C1CCCc2oc3ccc(O)cc3c21` [SMR000125008], for which the EC50 is above 300 µM.

In turn, `Nc1nc(NCCCN2CCOCC2)nc(Nc2ccc(Cl)cc2)c1[N+](=O)[O-]` [N'-(4-Chloro-phenyl)-N-(3-morpholin-4-yl-propyl)-5-nitro-pyrimidine-2,4,6-triamine] registered an EC50 of 1.47 µM.
